From patent publication US20210221832A1, “SUBSTITUTED PYRIDOINDOLES FOR THE TREATMENT AND PROPHYLAXIS OF BACTERIAL INFECTION” (Hoffmann-La Roche Inc., priority 2018, published 2021)
In brackets after ≈: the same amount, converted by molar mass.

Test: Lyophilisation Solubility Assay (LYSA)
Assay type: physicochemical
Details: aqueous buffer, thermodynamic from solid; 0.05 M phosphate buffer, pH 6.5
Experimental: The solubility of compounds of present invention was assessed by LYSA assay. Samples were prepared in duplicate from 10 mM DMSO stock solutions (20 μL) diluted in 30 μL pure DMSO. After evaporation of DMSO with a centrifugal vacuum evaporator, the residue was dissolved in 0.05 M phosphate buffer (150 μL, pH 6.5), which was stirred for one hour and shook for two hours. After one night, the solution was filtered using a microtiter filter plate. Then the filtrate and its 1/10 dilution were analyzed by HPLC-UV. In addition, a four-point calibration curve was prepared from the 10 mM stock solutions and used for the solubility determination of the compounds.
CN1C[C@@H]2CCN(c3c(-c4cnc5c(c4)c(=O)c(C(=O)O)cn5C)cnc4[nH]c5c(N(C)C(=O)OCOP(=O)(O)O)cc(F)c(C#N)c5c34)[C@@H]2C1 [Example 1.01, 6-[5-Cyano-6-fluoro-8-[methyl(phosphonooxymethoxycarbonyl)amino]-4-[(3aS,6aS)-5-methyl-2,3,3a,4,6,6a-hexahydropyrrolo[2,3-c]pyrrol-1-yl]-9H-pyrido[2,3-b]indol-3-yl]-1-methyl-4-oxo-1,8-naphthyridine-3-carboxylic acid] gave a solubility greater than 595 µg/mL. With CN1C[C@@H]2CCN(c3c(-c4cnc5c(c4)c(=O)c(C(=O)O)cn5C)cnc4[nH]c5c(N(C)C=O)cc(F)c(C#N)c5c34)[C@@H]2C1 [Example 1.03, 6-[5-Cyano-6-fluoro-8-[formyl(methyl)amino]-4-[(3aS,6aS)-5-methyl-2,3,3a,4,6,6a-hexahydropyrrolo[2,3-c]pyrrol-1-yl]-9H-pyrido[2,3-b]indol-3-yl]-1-methyl-4-oxo-1,8-naphthyridine-3-carboxylic acid] the solubility was greater than 730 µg/mL. Molecule CNc1cc(F)c(C#N)c2c1[nH]c1ncc(-c3cnc4c(c3)c(=O)c(C(=O)O)cn4C)c(N3CC[C@H]4C[N+](C)(COP(=O)(O)O)C[C@H]43)c12 (stereo partly drawn) [Example 1.07, 6-[5-Cyano-6-fluoro-8-(methylamino)-4-[(3aS,6aS)-5-methyl-5-(phosphonooxymethyl)-2,3,3a,4,6,6a-hexahydropyrrolo[2,3-c]pyrrol-5-ium-1-yl]-9H-pyrido[2,3-b]indol-3-yl]-1-methyl-4-oxo-1,8-naphthyridine-3-carboxylic acid] has a solubility greater than 1060 µg/mL. CN1C[C@@H]2CCN(c3c(-c4cnc5c(c4)c(=O)c(C(=O)O)cn5C)cnc4[nH]c5c(N(C)C=O)cc(F)c(F)c5c34)[C@@H]2C1 [Example 1.26, 6-[5,6-Difluoro-8-[formyl(methyl)amino]-4-[(3aS,6aS)-5-methyl-2,3,3a,4,6,6a-hexahydropyrrolo[2,3-c]pyrrol-1-yl]-9H-pyrido[2,3-b]indol-3-yl]-1-methyl-4-oxo-1,8-naphthyridine-3-carboxylic acid] gave a solubility greater than 783 µg/mL. In the case of CN1C[C@@H]2CCN(c3c(-c4cnc5c(c4)c(=O)c(C(=O)O)cn5C)cnc4[nH]c5c(N(C)S(=O)(=O)O)cc(F)c(F)c5c34)[C@@H]2C1 [Example 1.27, 6-[5,6-Difluoro-8-[methyl(sulfo)amino]-4-[(3aS,6aS)-5-methyl-2,3,3a,4,6,6a-hexahydropyrrolo[2,3-c]pyrrol-1-yl]-9H-pyrido[2,3-b]indol-3-yl]-1-methyl-4-oxo-1,8-naphthyridine-3-carboxylic acid], the solubility is reported as greater than 685 µg/mL. In the case of CN1C[C@@H]2CCN(c3c(-c4cnc5c(c4)c(=O)c(C(=O)O)cn5C)cnc4[nH]c5c(N(C)C(=O)OCOC(=O)/C=C/C(=O)O)cc(F)c(F)c5c34)[C@@H]2C1 [Example 1.28, 6-[5,6-Difluoro-8-[methyl-[[(E)-3-carboxyprop-2-enoyl]oxymethoxycarbonyl]amino]-4-[(3aS,6aS)-5-methyl-2,3,3a,4,6,6a-hexahydropyrrolo[2,3-c]pyrrol-1-yl]-9H-pyrido[2,3-b]indol-3-yl]-1-methyl-4-oxo-1,8-naphthyridine-3-carboxylic acid], the solubility is reported as greater than 945 µg/mL. Molecule CN1C[C@@H]2CCN(c3c(-c4ccc5ccc(C(=O)O)c(=O)n5c4)cnc4[nH]c5c(N(C)C(=O)OCOP(=O)(O)O)cc(F)c(F)c5c34)[C@@H]2C1 [Example 1.32, 7-[5,6-Difluoro-8-[methyl(phosphonooxymethoxycarbonyl)amino]-4-[(3aS,6aS)-5-methyl-2,3,3a,4,6,6a-hexahydropyrrolo[2,3-c]pyrrol-1-yl]-9H-pyrido[2,3-b]indol-3-yl]-4-oxo-quinolizine-3-carboxylic acid] has a solubility greater than 875 µg/mL. CN1C[C@@H]2CCN(c3c(-c4ccc5ccc(C(=O)O)c(=O)n5c4)cnc4[nH]c5c(N(C)C(=O)OCOC(=O)/C=C/C(=O)O)cc(F)c(F)c5c34)[C@@H]2C1 [Example 1.33, 7-[5,6-Difluoro-8-[methyl-[[(E)-3-carboxyprop-2-enoyl]oxymethoxycarbonyl]amino]-4-[(3aS,6aS)-5-methyl-2,3,3a,4,6,6a-hexahydropyrrolo[2,3-c]pyrrol-1-yl]-9H-pyrido[2,3-b]indol-3-yl]-4-oxo-quinolizine-3-carboxylic acid] gave a solubility of 680 µg/mL (≈ 949 µM). In the case of CN1C[C@@H]2CCN(c3c(-c4ccc5ccc(C(=O)O)c(=O)n5c4)cnc4[nH]c5c(N(C)C(=O)CNC(=O)CNC(=O)CN)cc(F)c(F)c5c34)[C@@H]2C1 [Example 1.34, 7-[8-[[2-[[2-[(2-Aminoacetyl)amino]acetyl]amino]acetyl]-methyl-amino]-5,6-difluoro-4-[(3aS,6aS)-5-methyl-2,3,3a,4,6,6a-hexahydropyrrolo[2,3-c]pyrrol-1-yl]-9H-pyrido[2,3-b]indol-3-yl]-4-oxo-quinolizine-3-carboxylic acid], the solubility is reported as greater than 930 µg/mL. In the case of CN1C[C@@H]2CCN(c3c(-c4ccc5ccc(C(=O)O)c(=O)n5c4)cnc4[nH]c5c(N(C)C(=O)CNC(=O)CN)cc(F)c(F)c5c34)[C@@H]2C1 [Example 1.35, 7-[8-[[2-[(2-Aminoacetyl)amino]acetyl]-methyl-amino]-5,6-difluoro-4-[(3aS,6aS)-5-methyl-2,3,3a,4,6,6a-hexahydropyrrolo[2,3-c]pyrrol-1-yl]-9H-pyrido[2,3-b]indol-3-yl]-4-oxo-quinolizine-3-carboxylic acid], the solubility is reported as greater than 915 µg/mL. Molecule CNc1cc(F)c(F)c2c3c(N4CC[C@H]5CN(C)C[C@H]54)c(-c4ccc5ccc(C(=O)O)c(=O)n5c4)cn(COP(=O)(O)O)c-3nc12 [Example 1.36, 7-[5,6-Difluoro-8-(methylamino)-1-(phosphonooxymethyl)-4-[(3aS,6aS)-5-methyl-2,3,3a,4,6,6a-hexahydropyrrolo[2,3-c]pyrrol-1-yl]pyrido[2,3-b]indol-3-yl]-4-oxo-quinolizine-3-carboxylic acid] has a solubility greater than 1000 µg/mL. Work on CNc1cc(F)c(F)c2c1[nH]c1ncc(-c3ccc4ccc(C(=O)OCCOC(=O)[C@@H](N)C(C)C)c(=O)n4c3)c(N3CC[C@H]4CN(C)C[C@H]43)c12 [Example 1.37, 2-[(2S)-2-Amino-3-methyl-butanoyl]oxyethyl 7-[5,6-difluoro-8-(methylamino)-4-[(3aS,6aS)-5-methyl-2,3,3a,4,6,6a-hexahydropyrrolo[2,3-c]pyrrol-1-yl]-9H-pyrido[2,3-b]indol-3-yl]-4-oxo-quinolizine-3-carboxylate] yielded a solubility of 315 µg/mL (≈ 458 µM). CN1C[C@@H]2CCN(c3c(-c4cnc5c(c4)c(=O)c(C(=O)O)cn5C)cnc4[nH]c5c(N(C)C(=O)OCOP(=O)(O)O)cc(F)c(F)c5c34)[C@@H]2C1 [Example 1.43, 6-[5,6-Difluoro-8-[methyl(phosphonooxymethoxycarbonyl)amino]-4-[(3aS,6aS)-5-methyl-2,3,3a,4,6,6a-hexahydropyrrolo[2,3-c]pyrrol-1-yl]-9H-pyrido[2,3-b]indol-3-yl]-1-methyl-4-oxo-1,8-naphthyridine-3-carboxylic acid] gave a solubility of 595 µg/mL (≈ 834 µM).
